Measurements taken from patent US10538536B2, “Process for the preparation of 2-pyrazolo[1,5-a]pyrazin-2-ylpyrido[1,2-a]pyrimidin-4-one compounds” (Hoffmann-La Roche Inc., priority 2016, dated 2020).

Key:
[1] = genotoxicity of side-products of the process with compound (IIIa); conditions: side-products formed when compound (IIIa) is used
Source text: According to the process herein described when compound (IIIa) is being used compounds of formulae (X) and (XI) may be produced as side-products, which are genotoxic: […]

[2] = relative stability of polymorphs Form A and Form F; format: physicochemical

Row | Compound | genotoxicity [1] | drug product robustness ([2]; Form F) | relative thermodynamic stability of polymorphs (enantiotropically related) ([2]; at 80° C. or below, Form F versus Form A)
1 | CCc1nc(C)cn2nc(-c3nc4c(C)cc(C5CCN(C)CC5)cn4c(=O)c3Cl)cc12 [(X)] | genotoxic |  | 
2 | CCc1nc(C)cn2nc(-c3nc4c(C)cc(C5CCN(C)CC5)cn4c(=O)c3C(=O)CCl)cc12 [(XI)] | genotoxic |  | 
3 | CCc1nc(C)cn2nc(-c3cc(=O)n4cc(C5CCN(C)CC5)cc(C)c4n3)cc12 [Form F, 2-(4-Ethyl-6-methyl-pyrazolo[1,5-a]pyrazin-2-yl)-9-methyl-7-(1-methyl-piperidin-4-yl)-pyrido[1,2-a]pyrimidin-4-one] |  | improve drug product robustness | more stable
